According to the NIST ThermoML archive (doi:10.1021/acs.jced.7b00494):
± gives the expanded uncertainty stated by the source.

Conditions: 99.6 kPa, Liquid; for kinematic viscosity: Capillary tube (Ostwald / Ubbelohde) method; for mass density: Vibrating tube method

CNC(C)=O [N-methylacetamide]
Conditions	kinematic viscosity [m2/s]	mass density [kg/m3]
308.15 K	3.79e-06 ± 4.6e-08	945.85 ± 1.9
313.15 K	3.35e-06 ± 4.1e-08	941.63 ± 1.9
318.15 K	2.99e-06 ± 3.7e-08	937.44 ± 1.9
323.15 K	2.68e-06 ± 3.3e-08	933.24 ± 1.9
328.15 K	2.42e-06 ± 3e-08	929.07 ± 1.9
